Measured values reported in ChEMBL document CHEMBL3507680, “University of Dundee, Gates Library screen for HepG2 cell viability”.

assay: Human HepG2 cell viability assay in 384 well format; assay type: toxicity, cell-based; set-up: dose 125 nL, time 70.5 hour; cytotoxicity at 70.5 h: concentration not given beside the values; conditions: HepG2 cells, read-out: Inhibition

Q: For `CN1C(=O)CCCC12CCCN(C(=O)c1cccc(C(F)(F)F)c1)C2` (centres undefined), which cytotoxicity at 70.5 h is on record?
A: -6.35%

Q: Which cytotoxicity at 70.5 h does the source give for `O=C([C@H]1CCCO1)N1CCC2(CCCN(CCOc3ccccc3)C2)C1` (some centres undefined) here?
A: 20.8%

Q: Which cytotoxicity at 70.5 h does the source give for `O=C1COC2(CCN(C(=O)c3ccoc3)CC2)CN1Cc1cccnc1` here?
A: -6.92%

Q: For `O=C(C1CCOCC1)N1CC[C@@H](O)[C@@H]1Cc1ccccc1`, which cytotoxicity at 70.5 h is on record?
A: 1.56%

Q: Which cytotoxicity at 70.5 h does the source give for `CN(C)CCN1CCC2(CCN(C(=O)c3cccnc3)CC2)C1=O` here?
A: -4.08%

Q: With `CN1CC2(CCCCN2C(=O)c2ccsc2)CC1=O` (centres undefined) as the molecule, how does the cytotoxicity at 70.5 h read?
A: 5.12%

Q: Which cytotoxicity at 70.5 h does the source give for `O=C(C1CCCO1)N1CCC2(CC1)COCCN2CC1CC1` (centres undefined) here?
A: 2.48%

Q: For `Cc1nc(N2CCCC2)nc2c1CN(C(=O)N(C)C)CC2`, which cytotoxicity at 70.5 h is on record?
A: -1.53%

Q: Which cytotoxicity at 70.5 h does the source give for `COc1cc(CN2C[C@@H]3CNC(=O)[C@H](C)[C@@H]3C2)cc(OC)c1` here?
A: -9.46%

Q: For `CN(CC1CC1)c1ccc2ccc(C(=O)NC3CCCCC3)cn12`, which cytotoxicity at 70.5 h is on record?
A: 12.9%

Q: With `c1cncc(-c2ccc3c(c2)C2(CCNCC2)CC3)c1` as the molecule, how does the cytotoxicity at 70.5 h read?
A: 52.4%

Q: For `CCN1C(=O)C2(CCOCC2)c2cc(NC(=O)COC)ccc21`, which cytotoxicity at 70.5 h is on record?
A: 14.9%

Q: For `COCC1CN(C(=O)c2cccc(C)n2)Cc2ncnn2C1` (centres undefined), which cytotoxicity at 70.5 h is on record?
A: 17.7%

Q: With `COCC1CN(C(=O)c2cnc(C)cn2)Cc2ncnn2C1` (centres undefined) as the molecule, how does the cytotoxicity at 70.5 h read?
A: 19%

Q: Which cytotoxicity at 70.5 h does the source give for `CN1CCN(C(=O)N2CCCC2)Cc2cccnc21` here?
A: -6.35%

Q: Which cytotoxicity at 70.5 h does the source give for `CCN1C(=O)C2(CCOCC2)c2cc(NC(=O)c3cnoc3C)ccc21` here?
A: -6.08%

Q: Which cytotoxicity at 70.5 h does the source give for `Cc1occc1C(=O)N1CCC2(CCN(Cc3nccs3)CC2)C1` here?
A: -5.43%

Q: Which cytotoxicity at 70.5 h does the source give for `Cc1nc([C@@H]2C[C@@H]3CCN(Cc4cnn(C)c4)C[C@H]3O2)sc1C` here?
A: -5.41%

Q: For `CCOC(=O)N1CC2(CCNCC2)c2cc(Cl)ccc21`, which cytotoxicity at 70.5 h is on record?
A: -11.6%

Q: For `CC(C)C[C@H](N)C(=O)N1CC2(CCNCC2)c2cc(Cl)ccc21`, which cytotoxicity at 70.5 h is on record?
A: 3.38%

Q: Which cytotoxicity at 70.5 h does the source give for `CC(=O)N1CCN(Cc2ccc(F)cc2)CC2(CC(=O)N(C)C2)C1` (centres undefined) here?
A: 23.3%

Q: Which cytotoxicity at 70.5 h does the source give for `CCN1CCOCC12CCN(C(=O)C1CCC1)CC2` here?
A: 14.1%

Q: Which cytotoxicity at 70.5 h does the source give for `CC(=O)N1CCN(Cc2ccsc2)CC2(CC(=O)N(C)C2)C1` (centres undefined) here?
A: -12.2%

Q: For `Cc1cccc(CN2C(=O)CCC23CCN(C(=O)NC(C)C)CC3)n1`, which cytotoxicity at 70.5 h is on record?
A: -2.54%

Q: Which cytotoxicity at 70.5 h does the source give for `CN1CCN(C)C2(CCN(Cc3ccsc3)CC2)C1=O` here?
A: 16.8%

Q: With `C[C@H]1C(=O)NC[C@H]2CN(Cc3cccc(F)c3)C[C@H]21` as the molecule, how does the cytotoxicity at 70.5 h read?
A: -8.78%

Q: With `Cn1cc(CN2C[C@H]3CN(c4cncnc4)C(=O)[C@H]3C2)cn1` as the molecule, how does the cytotoxicity at 70.5 h read?
A: -2.54%

Q: For `COc1ccc(CN2C[C@H]3CN(c4cncnc4)C(=O)[C@H]3C2)cc1`, which cytotoxicity at 70.5 h is on record?
A: -5.39%

Q: With `CN1CCN(C(=O)Cc2ccc(F)cc2)Cc2cccnc21` as the molecule, how does the cytotoxicity at 70.5 h read?
A: 5.52%

Q: With `Cc1nc(CN2CCC3(CCN(C(=O)c4ccoc4C)CC3)C2)cs1` as the molecule, how does the cytotoxicity at 70.5 h read?
A: -6.97%

Q: Which cytotoxicity at 70.5 h does the source give for `CCN1CC2(CC1=O)CN(Cc1ccccn1)CCN(C(C)=O)C2` (centres undefined) here?
A: -10.2%

Q: With `CC(C)C(=O)N1CCN(Cc2ccccn2)CC2(CC(=O)N(C)C2)C1` (centres undefined) as the molecule, how does the cytotoxicity at 70.5 h read?
A: -9.37%

Q: Which cytotoxicity at 70.5 h does the source give for `CN(C)CCN1C(=O)CCC12CCCN(C(=O)c1cccnc1)CC2` (centres undefined) here?
A: -5.29%

Q: Which cytotoxicity at 70.5 h does the source give for `CN(C)CCN1CCC2(CCN(C(=O)c3ccncc3)CC2)C1=O` here?
A: -7.69%

Q: For `CC(=O)N1CCN(Cc2ccncc2)CC2(CC(=O)N(C)C2)C1` (centres undefined), which cytotoxicity at 70.5 h is on record?
A: -7.88%

Q: With `Cc1nc(CN2CCC3(CC2)NC(=O)CC3c2ccncc2)cs1` (centres undefined) as the molecule, how does the cytotoxicity at 70.5 h read?
A: -5.12%

Q: For `Cc1ccc(CN2CCC3(CC2)C(=O)N(CC(C)C)CCN3C)s1`, which cytotoxicity at 70.5 h is on record?
A: 22.7%

Q: Which cytotoxicity at 70.5 h does the source give for `CCN1CCN(C)C2(CCN(Cc3ccsc3)CC2)C1=O` here?
A: -9.43%

Q: For `Cc1noc(C)c1CN1CCC2(CC1)CN(c1ccccn1)CCO2`, which cytotoxicity at 70.5 h is on record?
A: 17.3%

Q: For `CN1CCN(Cc2cccnc2)C2(CCN(c3ncccn3)C2)C1=O` (centres undefined), which cytotoxicity at 70.5 h is on record?
A: -5.32%

Q: Which cytotoxicity at 70.5 h does the source give for `Cc1cnc(N2CCC3(C2)C(=O)N(C)CCN3Cc2cccnc2)nc1` (centres undefined) here?
A: -5.14%

Q: With `c1ccc(CN2CCCC3(CCN(Cc4cccs4)C3)C2)nc1` (centres undefined) as the molecule, how does the cytotoxicity at 70.5 h read?
A: -7.54%

Q: With `CN1CCN(Cc2cccnc2)C2(CCN(Cc3ccoc3)C2)C1=O` (centres undefined) as the molecule, how does the cytotoxicity at 70.5 h read?
A: 20.4%

Q: With `COc1ncccc1CN1CCC2(CC1)CN(c1ccccn1)CCO2` as the molecule, how does the cytotoxicity at 70.5 h read?
A: -6.12%
